From ChEMBL document CHEMBL3885861, “Open TG-GATES”

Species on record: Rattus norvegicus
Test: Open TG-GATES - Regimen: Daily Repeat
Format: toxicity, organism-based, Sprague-Dawley
Set-up: regimen Daily Repeat, gender Male, age 6 weeks
Conditions: in vivo, po, 30 mg/kg, route gavage, dose level Low; for APTT / Bas / Eos / Fbg / Hb / Ht / Lym / MCH / MCHC / MCV / Mono / Neu / PT / Plat / RBC / Ret / WBC: tissue Blood; for KIDNEY_L / KIDNEY_R / KIDNEY_TOTAL: tissue Kidney; for LIVER: tissue Liver; for A/G / ALP / ALT / AST / BUN / CRE / Ca / Cl / DBIL / GLC / IP / K / LDH / Na / PL / RALB / TBIL / TC / TG / TP / gamma-GTP: tissue Plasma

SMILES: O=C(O)COc1nn(Cc2ccccc2)c2ccccc12 [BENDAZAC]
- TERMINAL_BW (72 h, time 3 day): 236.5 g
- APTT (72 h, time 3 day): 17 s
- Bas (72 h, time 3 day): 0%
- Eos (72 h, time 3 day): 1.4%
- Fbg (72 h, time 3 day): 215.2 mg/dL
- Hb (72 h, time 3 day): 13.4 g/dL
- Ht (72 h, time 3 day): 40.6%
- Lym (72 h, time 3 day): 79.2%
- MCH (72 h, time 3 day): 21.1 pg
- MCHC (72 h, time 3 day): 33%
- MCV (72 h, time 3 day): 63.9 fL
- Mono (72 h, time 3 day): 6.6%
- Neu (72 h, time 3 day): 12.8%
- PT (72 h, time 3 day): 11.9 s
- Plat (72 h, time 3 day): 128 x10_4/uL
- RBC (72 h, time 3 day): 636 x10_4/ul
- Ret (72 h, time 3 day): 6.9%
- WBC (72 h, time 3 day): 98.4 x10_2/uL
- KIDNEY_L (72 h, time 3 day): 1 g
- KIDNEY_R (72 h, time 3 day): 1 g
- KIDNEY_TOTAL (72 h, time 3 day): 2.1 g
- LIVER (72 h, time 3 day): 11.9 g
- A/G (72 h, time 3 day): 2.2
- ALP (72 h, time 3 day): 891 IU/L
- ALT (72 h, time 3 day): 36.6 IU/L
- AST (72 h, time 3 day): 66.6 IU/L
- BUN (72 h, time 3 day): 17.2 mg/dL
- CRE (72 h, time 3 day): 0.6 mg/dL
- Ca (72 h, time 3 day): 11 mg/dL
- Cl (72 h, time 3 day): 103 meq/L
- DBIL (72 h, time 3 day): 0.018 mg/dL
- GLC (72 h, time 3 day): 205.2 mg/dL
- IP (72 h, time 3 day): 7.5 mg/dL
- K (72 h, time 3 day): 4.5 meq/L
- LDH (72 h, time 3 day): 128 IU/L
- Na (72 h, time 3 day): 140.4 meq/L
- PL (72 h, time 3 day): 149.8 mg/dL
- RALB (72 h, time 3 day): 3.9 g/dL
- TBIL (72 h, time 3 day): 0.4 mg/dL
- TC (72 h, time 3 day): 74.4 mg/dL
- TG (72 h, time 3 day): 99.6 mg/dL
- TP (72 h, time 3 day): 5.7 g/dL
- gamma-GTP (72 h, time 3 day): 0.8 IU/L
- TERMINAL_BW ([…], time 7 day): 260.1 g
- TERMINAL_BW ([…], time 14 day): 298.7 g
- TERMINAL_BW ([…], time 28 day): 393.4 g
- APTT ([…], time 7 day): 17.3 s
- Bas ([…], time 7 day): 0%
- Eos ([…], time 7 day): 1.2%
- Fbg ([…], time 7 day): 214.6 mg/dL
- Hb ([…], time 7 day): 14.1 g/dL
- Ht ([…], time 7 day): 41.5%
- Lym ([…], time 7 day): 78.4%
- MCH ([…], time 7 day): 21.2 pg
- MCHC ([…], time 7 day): 34%
- MCV ([…], time 7 day): 62.4 fL
- Mono ([…], time 7 day): 6.8%
- Neu ([…], time 7 day): 14%
- PT ([…], time 7 day): 11.7 s
- Plat ([…], time 7 day): 131.9 x10_4/uL
- RBC ([…], time 7 day): 665.6 x10_4/ul
- Ret ([…], time 7 day): 6.1%
- WBC ([…], time 7 day): 109.2 x10_2/uL
- APTT ([…], time 14 day): 17.1 s
- Bas ([…], time 14 day): 0%
- Eos ([…], time 14 day): 0.6%
- Fbg ([…], time 14 day): 228.2 mg/dL
- Hb ([…], time 14 day): 14.9 g/dL
- Ht ([…], time 14 day): 44%
- Lym ([…], time 14 day): 85.2%
- MCH ([…], time 14 day): 20.6 pg
- MCHC ([…], time 14 day): 33.8%
- MCV ([…], time 14 day): 61 fL
- Mono ([…], time 14 day): 3.4%
- Neu ([…], time 14 day): 10.4%
- PT ([…], time 14 day): 11 s
- Plat ([…], time 14 day): 121.3 x10_4/uL
- RBC ([…], time 14 day): 720.6 x10_4/ul
- Ret ([…], time 14 day): 2.8%
- WBC ([…], time 14 day): 112.1 x10_2/uL
- APTT ([…], time 28 day): 17.2 s
- Bas ([…], time 28 day): 0%
- Eos ([…], time 28 day): 1.2%
- Fbg ([…], time 28 day): 217.6 mg/dL
- Hb ([…], time 28 day): 15.4 g/dL
- Ht ([…], time 28 day): 45.1%
- Lym ([…], time 28 day): 77.4%
- MCH ([…], time 28 day): 19.3 pg
- MCHC ([…], time 28 day): 34.1%
- MCV ([…], time 28 day): 56.7 fL
- Mono ([…], time 28 day): 5.4%
- Neu ([…], time 28 day): 15.4%
- PT ([…], time 28 day): 12 s
- Plat ([…], time 28 day): 119.3 x10_4/uL
- RBC ([…], time 28 day): 796.6 x10_4/ul
- Ret ([…], time 28 day): 2.3%
- WBC ([…], time 28 day): 105.4 x10_2/uL
- KIDNEY_L ([…], time 7 day): 1.1 g
- KIDNEY_R ([…], time 7 day): 1.1 g
- KIDNEY_TOTAL ([…], time 7 day): 2.2 g
- KIDNEY_L ([…], time 14 day): 1.2 g
- KIDNEY_R ([…], time 14 day): 1.2 g
- KIDNEY_TOTAL ([…], time 14 day): 2.5 g
- KIDNEY_L ([…], time 28 day): 1.5 g
- KIDNEY_R ([…], time 28 day): 1.5 g
- KIDNEY_TOTAL ([…], time 28 day): 2.9 g
- LIVER ([…], time 7 day): 12.5 g
- LIVER ([…], time 14 day): 13.5 g
- LIVER ([…], time 28 day): 16.7 g
- A/G ([…], time 7 day): 2.1
- ALP ([…], time 7 day): 930 IU/L
- ALT ([…], time 7 day): 32.8 IU/L
- AST ([…], time 7 day): 68.4 IU/L
- BUN ([…], time 7 day): 18.6 mg/dL
- CRE ([…], time 7 day): 0.5 mg/dL
- Ca ([…], time 7 day): 10.9 mg/dL
- Cl ([…], time 7 day): 104.8 meq/L
- DBIL ([…], time 7 day): 0 mg/dL
- GLC ([…], time 7 day): 214.2 mg/dL
- IP ([…], time 7 day): 7.2 mg/dL
- K ([…], time 7 day): 4.5 meq/L
- LDH ([…], time 7 day): 94.4 IU/L
- Na ([…], time 7 day): 142 meq/L
- PL ([…], time 7 day): 145.4 mg/dL
- RALB ([…], time 7 day): 3.9 g/dL
- TBIL ([…], time 7 day): 0.4 mg/dL
- TC ([…], time 7 day): 72 mg/dL
- TG ([…], time 7 day): 114.6 mg/dL
- TP ([…], time 7 day): 5.7 g/dL
- gamma-GTP ([…], time 7 day): 0.8 IU/L
- A/G ([…], time 14 day): 1.7
- ALP ([…], time 14 day): 683.4 IU/L
- ALT ([…], time 14 day): 31.6 IU/L
- AST ([…], time 14 day): 62.6 IU/L
- BUN ([…], time 14 day): 18.4 mg/dL
- CRE ([…], time 14 day): 0.5 mg/dL
- Ca ([…], time 14 day): 10.5 mg/dL
- Cl ([…], time 14 day): 105.8 meq/L
- DBIL ([…], time 14 day): 0.03 mg/dL
- GLC ([…], time 14 day): 185.4 mg/dL
- IP ([…], time 14 day): 6.9 mg/dL
- K ([…], time 14 day): 4.6 meq/L
- LDH ([…], time 14 day): 131.8 IU/L
- Na ([…], time 14 day): 140.8 meq/L
- PL ([…], time 14 day): 154.2 mg/dL
- RALB ([…], time 14 day): 3.8 g/dL
- TBIL ([…], time 14 day): 0.3 mg/dL
- TC ([…], time 14 day): 73.2 mg/dL
- TG ([…], time 14 day): 125.8 mg/dL
- TP ([…], time 14 day): 6 g/dL
- gamma-GTP ([…], time 14 day): 1.4 IU/L
- A/G ([…], time 28 day): 1.5
- ALP ([…], time 28 day): 780.4 IU/L
- ALT ([…], time 28 day): 30.4 IU/L
- AST ([…], time 28 day): 62.4 IU/L
- BUN ([…], time 28 day): 17.6 mg/dL
- CRE ([…], time 28 day): 0.5 mg/dL
- Ca ([…], time 28 day): 10 mg/dL
- Cl ([…], time 28 day): 104.2 meq/L
- DBIL ([…], time 28 day): 0.006 mg/dL
- GLC ([…], time 28 day): 192.2 mg/dL
- IP ([…], time 28 day): 6 mg/dL
- K ([…], time 28 day): 4.4 meq/L
- LDH ([…], time 28 day): 90 IU/L
- Na ([…], time 28 day): 139.6 meq/L
- PL ([…], time 28 day): 147.6 mg/dL
- RALB ([…], time 28 day): 3.7 g/dL
- TBIL ([…], time 28 day): 0.3 mg/dL
- TC ([…], time 28 day): 68.2 mg/dL
- TG ([…], time 28 day): 169 mg/dL
- TP ([…], time 28 day): 6.3 g/dL
- gamma-GTP ([…], time 28 day): 1.6 IU/L
